“And” between values parts separate entries of the source, which are not always exact repeats. Identical values can stand only once. Numbered stars: 1 amine (or outer) side, 2 acyl side, 3 side chain; on linkers, the order of the positions; unused ones are H or OH. Bridge positions count the residues as written; N and C are the ends. Square brackets hold non-standard residues; d marks the D form. Peptide text beside a SMILES is read from it. I, II: the chains in the order shown. Actinocin(9to1) = Cc1c2oc3c(C)ccc(C(=O)[*:1])c3nc-2c(C(=O)[*:2])c(N)c1=O; aThr = C[C@H](O)[C@H](N)C(=O)O; NMeV = CN[C@H](C(=O)O)C(C)C; Sar = CNCC(=O)O
System: Swiss mice, Sarcoma 180 sc, mean tumor weight T/C
Assay: NCI In Vivo Anticancer Drug Screen. Data for tumor model Sarcoma 180 (subcutaneous) in Swiss mice
Conditions: endpoint: mean tumor weight, higher = larger tumour
Outline: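 Readout is the ratio of treated-group measurement to vehicle-control measurement (T/C), based on survival or tumor size in mice carrying transplanted tumors.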

[1] = dose: 50.0 mg/kg/injection, schedule: Q01DX007 (ip), vehicle: carboxymethylcellulose (CMC)
[2] = dose: 62.0 mg/kg/injection, schedule: Q01DX007 (ip), vehicle: carboxymethylcellulose (CMC)
[3] = dose: 125.0 mg/kg/injection, schedule: Q01DX007 (ip), vehicle: carboxymethylcellulose (CMC)
[4] = dose: 187.5 mg/kg/injection, schedule: Q01DX007 (ip), vehicle: carboxymethylcellulose (CMC)

## Cn1c(N)nc2nc[nH]c2c1=S
dose: 1.35 mg/kg/injection, schedule: Q#A X014 (ip), vehicle: methylcellulose (MC)
  T/C: 108 % of control
dose: 2.0 mg/kg/injection, schedule: Q#A X014 (ip), vehicle: methylcellulose (MC)
  T/C: 45 % of control
dose: 3.0 mg/kg/injection, schedule: Q#A X014 (ip), vehicle: methylcellulose (MC)
  T/C: 67 % of control
dose: 4.5 mg/kg/injection, schedule: Q#A X014 (ip), vehicle: methylcellulose (MC)
  T/C: 37 % of control

## O=C(Nc1ccc(C2=NCCCN2)cc1)c1ccc(C(=O)Nc2ccc(C3=NCCCN3)cc2)cc1
dose: 0.2 mg/kg/injection, schedule: Q01DX007 (ip), vehicle: water
  T/C: 83 % of control
dose: 0.4 mg/kg/injection, schedule: Q01DX007 (ip), vehicle: water
  T/C: 106 % of control
dose: 0.8 mg/kg/injection, schedule: Q01DX007 (ip), vehicle: water
  T/C: 88 % of control
dose: 1.0 mg/kg/injection, schedule: Q01DX007 (ip), vehicle: carboxymethylcellulose (CMC)
  T/C: 80 % of control
dose: 1.6 mg/kg/injection, schedule: Q01DX007 (ip), vehicle: water
  T/C: 90 % of control
dose: 2.0 mg/kg/injection, schedule: Q01DX007 (ip), vehicle: carboxymethylcellulose (CMC)
  T/C: 93 % of control
dose: 8.0 mg/kg/injection, schedule: Q01DX007 (ip), vehicle: carboxymethylcellulose (CMC)
  T/C: 104 % of control
dose: 16.0 mg/kg/injection, schedule: Q01DX007 (ip), vehicle: carboxymethylcellulose (CMC)
  T/C: 25 % of control
dose: 32.0 mg/kg/injection, schedule: Q01DX007 (ip), vehicle: carboxymethylcellulose (CMC)
  T/C: 14 % of control

## COc1cc2c(c(OC3OC(CO)C(O)C(O)C3O)c1)C(=O)CC(c1ccc(O)cc1)O2 (stereo not drawn)
dose: 100.0 mg/kg/injection, schedule: Q01DX007 (ip), vehicle: other
  T/C: 90 % of control
dose: 200.0 mg/kg/injection, schedule: Q01DX007 (ip), vehicle: other
  T/C: 71 % of control

## CCc1nc(N)nc(N)c1-c1ccc(Cl)cc1
dose: 6.25 mg/kg/injection, schedule: Q01DX007 (ip), vehicle: carboxymethylcellulose (CMC)
  T/C: 114 % of control
dose: 12.5 mg/kg/injection, schedule: Q01DX007 (ip), vehicle: carboxymethylcellulose (CMC)
  T/C: 88 % of control
dose: 25.0 mg/kg/injection, schedule: Q01DX007 (ip), vehicle: carboxymethylcellulose (CMC)
  T/C: 114 % of control
[1]
  T/C: 77 % of control

## CCOC(N)=O
dose: 62.5 mg/kg/injection, schedule: Q#A X014 (ip), vehicle: carboxymethylcellulose (CMC)
  T/C: 103 % of control
dose: 85.38 mg/kg/injection, schedule: Q01DX007 (ip), vehicle: carboxymethylcellulose (CMC)
  T/C: 56 % of control
dose: 112.5 mg/kg/injection, schedule: Q01DX007 (ip), vehicle: carboxymethylcellulose (CMC)
  T/C: 53 % of control
dose: 125.0 mg/kg/injection, schedule: Q#A X014 (ip), vehicle: carboxymethylcellulose (CMC)
  T/C: 85 % of control
dose: 170.75 mg/kg/injection, schedule: Q01DX007 (ip), vehicle: carboxymethylcellulose (CMC)
  T/C: 64 % of control
dose: 225.0 mg/kg/injection, schedule: Q01DX007 (ip), vehicle: carboxymethylcellulose (CMC)
  T/C: 42 % of control
dose: 225.0 mg/kg/injection, schedule: Q#A X014 (ip), vehicle: carboxymethylcellulose (CMC)
  T/C: 113 % of control
dose: 250.0 mg/kg/injection, schedule: Q#A X014 (ip), vehicle: carboxymethylcellulose (CMC)
  T/C: 77 % of control
dose: 273.2 mg/kg/injection, schedule: Q01DX007 (ip), vehicle: carboxymethylcellulose (CMC)
  T/C: 55 % of control
dose: 300.0 mg/kg/injection, schedule: Q#A X014 (ip), vehicle: carboxymethylcellulose (CMC)
  T/C: 73 % of control
dose: 316.0 mg/kg/injection, schedule: Q01DX007 (ip), vehicle: carboxymethylcellulose (CMC)
  T/C: 67 % of control
dose: 341.5 mg/kg/injection, schedule: Q01DX007 (ip), vehicle: carboxymethylcellulose (CMC)
  T/C: 37 % of control and 46 % of control
dose: 395.0 mg/kg/injection, schedule: Q01DX007 (ip), vehicle: carboxymethylcellulose (CMC)
  T/C: 54 % of control
dose: 450.0 mg/kg/injection, schedule: Q01DX007 (ip), vehicle: carboxymethylcellulose (CMC)
  T/C: 53 % of control
dose: 455.33 mg/kg/injection, schedule: Q01DX007 (ip), vehicle: carboxymethylcellulose (CMC)
  T/C: 62 % of control
dose: 500.0 mg/kg/injection, schedule: Q#A X014 (ip), vehicle: carboxymethylcellulose (CMC)
  T/C: 24 % of control
dose: 526.6 mg/kg/injection, schedule: Q01DX007 (ip), vehicle: carboxymethylcellulose (CMC)
  T/C: 40 % of control
dose: 683.0 mg/kg/injection, schedule: Q01DX007 (ip), vehicle: carboxymethylcellulose (CMC)
  T/C: 21 % of control and 44 % of control
dose: 900.0 mg/kg/injection, schedule: Q01DX007 (ip), vehicle: carboxymethylcellulose (CMC)
  T/C: 23 % of control

## CCCN(C)/N=N/c1nc[nH]c1C(N)=O
dose: 31.0 mg/kg/injection, schedule: Q01DX007 (ip), vehicle: carboxymethylcellulose (CMC)
  T/C: 55 % of control
dose: 46.0 mg/kg/injection, schedule: Q01DX007 (ip), vehicle: carboxymethylcellulose (CMC)
  T/C: 37 % of control
[2]
  T/C: 34 % of control

## CC(=O)OCC(=O)[C@@]1(O)CC[C@H]2[C@@H]3CCC4=CC(=O)CC[C@]4(C)[C@H]3[C@@H](O)C[C@@]21C
dose: 12.5 mg/kg/injection, schedule: Q#A X014 (ip), vehicle: steriod suspending solution
  T/C: 70 % of control
dose: 25.0 mg/kg/injection, schedule: Q#A X014 (ip), vehicle: steriod suspending solution
  T/C: 88 % of control
dose: 50.0 mg/kg/injection, schedule: Q#A X014 (ip), vehicle: steriod suspending solution
  T/C: 57 % of control

## CC(=O)Nc1cc2c(cc1Cl)C(=O)c1cc(Cl)ccc1-2
dose: 55.0 mg/kg/injection, schedule: Q01DX007 (ip), vehicle: carboxymethylcellulose (CMC)
  T/C: 75 % of control
dose: 83.0 mg/kg/injection, schedule: Q01DX007 (ip), vehicle: carboxymethylcellulose (CMC)
  T/C: 53 % of control
[3]
  T/C: 39 % of control
[4]
  T/C: 26 % of control

## Cc1ncc(CO)c(CNC(=O)N(C)N=O)c1O
[2]
  T/C: 60 % of control

## Clc1c(Cl)c(Cl)c(SCc2ccccc2)c(Cl)c1Cl
dose: 111.0 mg/kg/injection, schedule: Q#A X014 (ip), vehicle: saline
  T/C: 83 % of control
dose: 166.5 mg/kg/injection, schedule: Q#A X014 (ip), vehicle: saline
  T/C: 70 % of control
dose: 250.0 mg/kg/injection, schedule: Q#A X014 (ip), vehicle: saline
  T/C: 42 % of control
dose: 375.0 mg/kg/injection, schedule: Q#A X014 (ip), vehicle: saline
  T/C: 38 % of control

## Cc1c2oc3c(C)ccc(C(=O)N[C@@H]4C(=O)N[C@H](C(C)C)C(=O)N5CCC[C@H]5C(=O)N(C)CC(=O)N(C)[C@@H](C(C)C)C(=O)O[C@H]4C)c3nc-2c(C(=O)N[C@@H]2C(=O)N[C@H](C(C)C)C(=O)N3CCC[C@H]3C(=O)N(C)CC(=O)N(C)[C@@H](C(C)C)C(=O)O[C@H]2C)c(N)c1=O (I: [aThr][dV]P[Sar][NMeV] / II: [aThr][dV]P[Sar][NMeV]; ester I:1-I:C, II:1-II:C; linker I:N-II:N via Actinocin(9to1))
dose: 4.0 mg/kg/injection, schedule: Q#A X014 (ip), vehicle: carboxymethylcellulose (CMC)
  T/C: 105 % of control
dose: 7.5 mg/kg/injection, schedule: Q#A X014 (ip), vehicle: carboxymethylcellulose (CMC)
  T/C: 71 % of control
dose: 12.0 mg/kg/injection, schedule: Q#A X014 (ip), vehicle: carboxymethylcellulose (CMC)
  T/C: 70 % of control
dose: 15.0 mg/kg/injection, schedule: Q#A X014 (ip), vehicle: carboxymethylcellulose (CMC)
  T/C: 47 % of control and 71 % of control
dose: 20.0 mg/kg/injection, schedule: Q#A X014 (ip), vehicle: carboxymethylcellulose (CMC)
  T/C: 51 % of control
dose: 30.0 mg/kg/injection, schedule: Q#A X014 (ip), vehicle: carboxymethylcellulose (CMC)
  T/C: 13 % of control and 24 % of control

## O=CC1CO1 (stereo not drawn)
[1]
  T/C: 123 % of control

## COc1ccc2c(c1)CC[C@@H]1[C@@H]2CC[C@]2(C)C=CC[C@@H]12
dose: 2.5 mg/kg/injection, schedule: Q01DX007 (sc), vehicle: steriod suspending solution
  T/C: 104 % of control
dose: 5.0 mg/kg/injection, schedule: Q01DX007 (sc), vehicle: steriod suspending solution
  T/C: 91 % of control
dose: 10.0 mg/kg/injection, schedule: Q01DX007 (sc), vehicle: steriod suspending solution
  T/C: 75 % of control

## CCC(CC)C(O)CCCN(C)C (stereo not drawn)
dose: 100.0 mg/kg/injection, schedule: Q01DX007 (ip), vehicle: saline
  T/C: 103 % of control
dose: 200.0 mg/kg/injection, schedule: Q01DX007 (ip), vehicle: saline
  T/C: 95 % of control
dose: 400.0 mg/kg/injection, schedule: Q01DX007 (ip), vehicle: saline
  T/C: 75 % of control

## Nc1ccc2c(c1)Cc1cc(NC=O)ccc1-2
dose: 55.5 mg/kg/injection, schedule: Q01DX007 (ip), vehicle: carboxymethylcellulose (CMC)
  T/C: 98 % of control
dose: 83.3 mg/kg/injection, schedule: Q01DX007 (ip), vehicle: carboxymethylcellulose (CMC)
  T/C: 52 % of control
[3]
  T/C: 72 % of control
[4]
  T/C: 36 % of control

## COc1ccc(-c2cc(=O)c3c(O)cc(OC)cc3o2)cc1
dose: 220.0 mg/kg/injection, schedule: Q01DX007 (ip), vehicle: saline
  T/C: 76 % of control
dose: 330.0 mg/kg/injection, schedule: Q01DX007 (ip), vehicle: saline
  T/C: 66 % of control
dose: 500.0 mg/kg/injection, schedule: Q01DX007 (ip), vehicle: saline
  T/C: 81 % of control

— PubChem BioAssay AID342 (DTP/NCI, 2004)
